From patent US20200255492A1, “LEPTIN PEPTIDES AND THEIR USE FOR TREATING NEUROLOGICAL DISORDERS” (UNIVERSITY OF DUNDEE, priority 2017, published 2020)

Assays:
SH-SY5Y = assay: Cell survival with Aβ1-42 and leptin (22-56) (data not shown); format: cell-based, human
Description: The human neuroblastoma cell line, SH-SY5Y (ECACC, UK) was maintained in Dulbecco's Modified Eagle Medium supplemented with glucose ([…]) and 10% (v/v) cosmic calf serum (Fisher Scientific, UK) at 37° C. in a humidified atmosphere of 5% CO2, 95% air and allowed to reach 70-80% confluence before seeding. Cells (passage 10-18) were plated at 10 000 cells per well in 96 well tissue culture plates (Nunc, VWR, UK) and at a density of 2×10^5 cells in 35 mm dishes for protein extraction. To induce differentiation, cells were cultured in DMEM supplemented with glucose ([…]), 1% (v/v) cosmic calf serum and 10 μM retinoic acid for 5 days. Thereafter they were incubated in DMEM supplemented with glucose ([…]), serum replacement 2 (2%; Sigma, UK) and 18 μM 5-fluorodeoxyuridine to inhibit proliferation of undifferentiated cells. […]
The concentration of lactate dehydrogenase (LDH) in the culture medium or the mitochondrial activity within cells was used to monitor the level of cell death, as previously (Oldreive and Doherty 2010). […] Plates were washed 5-10 times in dH2O and cells solubilised in 100 μl dimethyl sulfoxide (DMSO) before reading the absorbance on a Biohit BP100 plate reader. For all assays, data is expressed as percentage relative to control, untreated wells to normalize for differences in plating density between individual experiments. […]

[1] = system: differentiated human neural cells (SH-SY5Y); assay: Crystal violet assay of cell number; format: cell-based
Description: (§1) The human neuroblastoma cell line, SH-SY5Y (ECACC, UK) was maintained in Dulbecco's Modified Eagle Medium supplemented with glucose ([…]) and 10% (v/v) cosmic calf serum (Fisher Scientific, UK) at 37° C. in a humidified atmosphere of 5% CO2, 95% air and allowed to reach 70-80% confluence before seeding. Cells (passage 10-18) were plated at 10 000 cells per well in 96 well tissue culture plates (Nunc, VWR, UK) and at a density of 2×10^5 cells in 35 mm dishes for protein extraction. To induce differentiation, cells were cultured in DMEM supplemented with glucose ([…]), 1% (v/v) cosmic calf serum and 10 μM retinoic acid for 5 days. Thereafter they were incubated in DMEM supplemented with glucose ([…]), serum replacement 2 (2%; Sigma, UK) and 18 μM 5-fluorodeoxyuridine to inhibit proliferation of undifferentiated cells. The 50% of the medium was changed every 2-3 days and pharmacological treatment was carried out 7 days after switching to this medium. Reagents used were (from Sigma UK unless stated) 0.1-10 nM human leptin and leptin (116-130); 0.1-10 nM leptin (22-56; Bachem; Switzerland); 10 nM leptin (116-121) leptin (117-122), leptin (124-129) or leptin (125-130; all Severn Biotech, UK); 5 μM copper chloride; […], 5 μM WP1066 or 50 nM wortmannin. All treatments were added to the culture at the same time and survival assays were carried out after 96 h treatment. Protein samples for signaling ELISA were extracted 3 h after exposure to the relevant reagents and for biomarker expression after 72 hours.
The concentration of lactate dehydrogenase (LDH) in the culture medium or the mitochondrial activity within cells was used to monitor the level of cell death, as previously (Oldreive and Doherty 2010). In certain experiments, a Crystal violet assay was used to assess total cell number. Cells were fixed in neutral buffered formalin and washed 3 times in PBS prior to staining with 0.01% crystal violet acetate for 5 min. Plates were washed 5-10 times in dH2O and cells solubilised in 100 μl dimethyl sulfoxide (DMSO) before reading the absorbance on a Biohit BP100 plate reader. For all assays, data is expressed as percentage relative to control, untreated wells to normalize for differences in plating density between individual experiments.
In parallel studies a crystal violet assay was used to verify these findings by assessing cell number. In CuCl2-treated cells, there was a concentration-dependent increase in the survival of cells treated with either leptin or leptin (116-130). […] Treatment with leptin (116-130) also mirrored leptin action by increasing cell viability in Aβ1-42-treated cultures as cell number increased by 19.2±15% and 44.3±7.5% after treatment with 0.1 nM or 10 nM leptin, respectively (n=5 for each; P<0.01).

STAT3 = assay: ELISA ratio of phospho-STAT3 to pan-STAT3; format: cell-based, human; conditions: 1 nM; 3 h
Description: as §1, with “All treatments were added to the culture at the same time and survival assays were carried out after 96 h treatment. Protein samples for signaling ELISA were extracted 3 h after exposure to the relevant reagents and for biomarker expression after 72 hours.” left out

C57/BL6 mice = assay: Object-place-context (OPC) recognition task, episodic-like memory; format: in vivo; conditions: 100 μl IP of 7.8 nM/ml 30 min prior to testing
Description: FIG. 7A, FIG. 7B, FIG. 7C and FIG. 7D show Leptin (116-130) enhances episodic-like memory. FIG. 7A: object-place-context task used to assess episodic-like memory. There are 2 sample phases in which mice are exposed to different copies of 2 different objects (star and hexagon) and allowed to explore for 3 min. In the test phase they see 2 new copies of 1 of the objects. The arrow points to the object that has not been previously seen in that place within that context. FIG. 7B: mean±SEM discrimination index for the 3 groups. *P<0.05. FIG. 7C: total exploration time in the test phase is not different between groups. FIG. 7D: exploration of the novel and familiar objects in the test phase; treatment with leptin or the leptin fragment (116-130) enhanced performance on the episodic-like memory test.
To further assess its therapeutic potential we next asked if this fragment has similar cognitive enhancing properties to the whole leptin molecule. Previous studies indicate that leptin enhances hippocampal-dependent memory (Oomura et al. 2006; Farr et al. 2006), whereas resistance to lep-tin results in impaired spatial memory (Li et al. 2002). We used the object-place-context (OPC) recognition task which models human episodic memory, the first cognitive process to be compromised in the early stages of AD (Swainson et al. 2001). […]

[2] = Samson et al. 1996; cited from earlier work

## Aβ1-42: amyloid beta 1-42, toxin used in the AD models [reference compound]
SH-SY5Y; Aβ1-42 alone
  survival following Aβ1-42 treatment: 41.2±5.8 % survival

## SCSLPQTSGLQKPES (listed as Mus musculus) [leptin (116-130)]
[1]; 0.1 nM
  increase in cell number, Aβ1-42-treated cultures: 29.4±9.4%
  increase in cell number, CuCl2-treated cells: 27.8±10.6%
[1]; 10 nM
  increase in cell number, Aβ1-42-treated cultures: 51.8±6.3%
  increase in cell number, CuCl2-treated cells: 39.9±13.5%
STAT3
  ratio of phosphorylated STAT3 to pan STAT3: increased markedly
C57/BL6 mice
  performance (discrimination index) in episodic-like OPC task: enhanced performance on the task relative to the control group

## leptin (22-56): leptin fragment amino acids 22-56 (Bachem), comparison fragment (VPIQKVQDDTKTLIKTIVTRINDISHTQSVSSKQK; UniProt P41159 22-56, looked up, fragment) [reference compound]
SH-SY5Y; Aβ1-42 with 10 nM leptin (22-56)
  survival in Aβ1-42 treated cells: 48.6±9.3%
[2]
  food intake: significant reductions in food intake

## leptin: the metabolic hormone leptin, whole (full length) leptin molecule; human leptin from Sigma in SH-SY5Y work
[1]; 0.1 nM
  increase in cell number, Aβ1-42-treated cultures: 19.2±15%
  increase in cell number, CuCl2-treated cells: 16.7±3.4%
[1]; 10 nM
  increase in cell number, Aβ1-42-treated cultures: 44.3±7.5%
  increase in cell number, CuCl2-treated cells: 43.4±9.2%
C57/BL6 mice
  performance (discrimination index) in episodic-like OPC task: enhanced performance on the task relative to the control group
